Consider one compound from publication PMC6881810, “Trichoderma reesei Dehydrogenase, a Pyrroloquinoline Quinone-Dependent Member of Auxiliary Activity Family 12 of the Carbohydrate-Active Enzymes Database: Functional and Structural Characterization” (Applied and Environmental Microbiology, 2019).

The test concerns the target T1, TrAA12 (Trichoderma reesei, UniProt G0RPY6).
T1 construct: gene AA12
The test can be described thus: cytochrome c reduction at […] nm, Michaelis-Menten nonlinear fit. Type of test: biochemical. To be noted: 50 uM cytochrome c, 4 uM PQQ, 1 mM CaCl2, 50 mM sodium acetate pH 5.5, 40 C; full cofactor occupancy assumed.

T1 sequence (G0RPY6 24-430): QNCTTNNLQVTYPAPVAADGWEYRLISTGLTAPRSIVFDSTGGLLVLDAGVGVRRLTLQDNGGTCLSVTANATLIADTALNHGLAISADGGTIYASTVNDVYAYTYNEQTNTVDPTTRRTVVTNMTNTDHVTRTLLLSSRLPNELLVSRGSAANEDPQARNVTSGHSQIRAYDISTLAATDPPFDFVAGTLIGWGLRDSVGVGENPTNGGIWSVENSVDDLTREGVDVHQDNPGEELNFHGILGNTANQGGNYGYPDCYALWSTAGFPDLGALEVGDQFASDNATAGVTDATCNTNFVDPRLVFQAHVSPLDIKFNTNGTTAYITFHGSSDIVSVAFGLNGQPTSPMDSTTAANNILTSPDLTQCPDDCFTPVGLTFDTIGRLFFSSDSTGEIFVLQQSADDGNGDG

`C[C@@H]1OC(O)[C@@H](O)[C@H](O)[C@@H]1O` (stereo partly drawn) [L-fucose]: the Michaelis-Menten constant (Km) – broadly, the substrate concentration at which the rate is half of its maximum – was determined as 99.9 ± 9.7 mM.
